From patent US20150314021A1, “STERILIZATION METHOD COMPRISING STERILIZATION FLUID AND ULTRASONICALLY GERERATED CAVITATION MICROBUBBLES” (DEVIS TECHNOLOGIES INC., priority 2012, published 2015) come the findings set out here.

In this test the test system is Bacillus atrophaeus and Bacillus stearothermophilus. Particulars: H2O2 alone (no ultrasound).

Read-outs that look alike come from different tables or passages of the source.

Take `OO` [Hydrogen Peroxide, hydrogen peroxide]: the “reduction in cell count” value runs as follows: (1 min exposure) 50.02%; (5 min exposure) 50.12%.
